Patent publication US20140315956A1, “SMALL MOLECULE INHIBITORS OF IL-6 AND USES THEREOF” (NATIONWIDE CHILDREN'S HOSPITAL, priority 2011, published 2014)
“Also recorded” adds a separate entry of the source. Where two headings read alike, the source gives them in different places.

What was measured:
[1] = system: Stat3 phosphorylation (p-Tyr705) induced by IL-6 in LNCaP prostate cancer cells; assay: IL-6 induced Stat3 phosphorylation in LNCaP cells, Western blot; type: cell-based; conditions: for inhibition of Stat3 phosphorylation induced by IL6: Western blot; for relative potency of inhibition of Stat3 phosphorylation: comparison in words
Method: LNCaP prostate cancer cells were acquired from American Type Culture Collection. Cells were maintained in RPMI 1640 medium, 1× with 4.5 g/L L-glutamine, supplemented with 10% FBS, 100 U/ml penicillin and […] streptomycin (Invitrogen), in a humidified atmosphere of 5% CO2 at 37° C.
LNCaP prostate cancer cells were seeded in T75 flasks, grown to 50% confluence and serum-starved the following night. The cells were left untreated or were treated with MDL-A (100-400 μM), 1, 2 (5-40 μM) or DMSO in the absence of FBS. After 4 hours, the cells were stimulated with 12.5 ng/ml IL-6 (Cell Signaling Technology). The cells were then harvested at 30 minutes and washed with PBS and lysed in cold M-PER lysis buffer (Pierce) containing protease inhibitors (Sigma) and phosphatase inhibitors (Roche). Lysates were centrifuged at 14,000 rpm for 15 minutes at 4° C. and supernatants were collected and stored at −20° C. until further use.
Cell lysates were assayed for their protein concentrations using the Bradford protein assay reagent (Pierce), using BSA (Fisher Scientific) as the standard. Lysate samples were adjusted for the same protein concentration, approximately 5 μg of sample protein was loaded into each of the appropriate lanes. Protein samples were separated by SDS-PAGE and electrotransferred to PVDF membranes. The membranes were washed and blocked with 5% BSA in TBST (60 mM Tris-base, 120 mM NaCl, 0.1% Tween-20) for at least one hour and incubated with anti-phospho-STAT3 (p-Tyr705) antibody, anti-STAT3 antibody or anti-GAPDH antibody (all from Cell Signaling Technology) in 5% BSA in TBST overnight at 4° C. Blots were then washed three times in TBST and incubated with a horseradish peroxidase-conjugated goat anti-rabbit IgG secondary antibody (Cell Signaling Technology) in 5% BSA in TBST for 1 hour at room temperature. The bound antibody was detected using Enhanced Chemiluminescence detection reagents (Pierce) according to the manufacturer's instructions and chemiluminescence visualized using ECL Hyperfilm (Amersham).

[2] = system: nuclear translocation of STAT3 in MCF-7 cells; assay: Immunofluorescence of IL6-activated STAT3 nuclear translocation in MCF-7 cells; type: cell-based
[3] = biological target: T1, gp130 extracellular domain (recombinant gp130-Fc-HA) (Homo sapiens, UniProt P40189); assay: Surface plasmon resonance direct binding to gp130-Fc-HA; conditions: for binding in SPR direct binding assay, comparison in words: relative to MDL-A or to other analogues
T1 construct: purified gp130 (amino residue 18-615); made in house; host or cells: HEK293T (plasmid from Dr. John J. Krolewski)
T1 sequence (P40189 18-615): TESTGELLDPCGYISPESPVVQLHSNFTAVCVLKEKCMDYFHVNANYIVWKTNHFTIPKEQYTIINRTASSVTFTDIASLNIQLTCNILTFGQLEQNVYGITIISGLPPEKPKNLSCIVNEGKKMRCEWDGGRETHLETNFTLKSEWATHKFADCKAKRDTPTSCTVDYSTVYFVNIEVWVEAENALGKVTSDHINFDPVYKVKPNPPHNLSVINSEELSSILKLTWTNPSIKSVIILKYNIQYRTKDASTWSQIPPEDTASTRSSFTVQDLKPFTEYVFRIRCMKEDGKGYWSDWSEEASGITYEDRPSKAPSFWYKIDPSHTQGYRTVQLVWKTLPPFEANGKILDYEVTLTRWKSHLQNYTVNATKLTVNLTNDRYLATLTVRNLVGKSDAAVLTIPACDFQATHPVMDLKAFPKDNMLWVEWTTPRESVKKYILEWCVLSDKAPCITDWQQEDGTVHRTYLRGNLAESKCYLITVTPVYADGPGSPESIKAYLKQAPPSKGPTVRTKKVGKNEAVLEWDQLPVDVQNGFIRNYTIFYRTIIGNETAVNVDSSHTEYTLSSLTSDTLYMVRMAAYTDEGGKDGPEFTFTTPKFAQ
Method: HEK293T cells were grown in media containing DMEM+10% fetal bovine serum (FBS),100 U/ml penicillin and […] streptomycin (Invitrogen) in a humidified 37° C. incubator with 5% CO2. Plasmid DNA expressing gp130-Fc-HA was transfected in the form of calcium phosphate precipitate into HEK293T cells (ten T75 flasks containing 5.5×10^6 cells). The supernatant was harvested sixty hours post transfection and centrifuged to remove residual cells and adjusted to pH 8.0. The supernatant was passed through a 0.45 μm filter. The gp130-Fc-HA tagged protein was immunoprecipitated using anti-HA affinity matrix (Roche Applied Bioscience).A one milliliter column containing anti-HA affinity matrix was equilibrated with 20 mM Tris-HCl, 0.1M NaCl, 0.1 mM EDTA (pH 8.0). The supernatant was applied to the equilibrated column and the column was washed successively with 20 mM Tris-HCl, 1M NaCl (pH 8.0). Bound protein was eluted with HA peptide dissolved in equilibration buffer. The column was regenerated with 0.1 M glycine (pH 2.0). Fractions containing recombinant protein were pooled, dialyzed against HBS buffer [10 mM HEPES (pH 7.4), 0.15 M NaCl, 3 mM EDTA, 0.005% P20] and concentrated by Centricon 30 (Amicon) centrifugation. Protein concentration was determined using Bradford protein assay reagent (Pierce), with bovine serum albumin (BSA, Fisher Scientific) as a standard. The purified recombinant gp130 protein was analyzed using SDS-PAGE and immunoblotting.
Surface plasmon resonance (SPR) analysis was performed using BIAcore T100. Recombinant gp130-Fc-HA was cross-linked to the flow cell on a carboxymethylated dextran matrix of a CM5 sensor chip (BIAcore) using standard amino group coupling methods according to the manufacturer's instructions. Sodium acetate (10 mM, pH 3.5) gave the best immobilization of the protein on the chip surface and unreactive groups on the chip were blocked by ethanolamine according to the manufacturer's instructions. Approximately 5000 resonance units (RU) of gp130-Fc-HA were cross-linked to the flow cell. HBS+1% DMSO were used in all buffers (running and sample) to avoid background response due to differences in buffer refractive index. For the equilibrium analysis, various concentrations of MDL-A, 1, and 2 were injected for a period of 2 min at a flow rate of 30 μl/min, in series, into flow cells containing covalently bound gp130-fc-HA and reference flow cell. Bound ligand (MDL-A, 1, and 2) in each assay was removed by passing 10 mM glycine (pH 2.2) over the chip surface. Biacore T100 Evaluation 2.0 was used for all interaction analyses. The steady-state equilibrium response (RUeq) was determined from the reference-subtracted sensogram. The kinetics parameter was calculated according to a 1:1 Langmuir binding model (A+B ? AB) by direct fitting of ligand binding sensor grams at multiple concentrations. The dissociation equilibrium constant is defined as dissociation constant (KD)=dissociation rate constant (kd)/association rate constant (ka). KD was determined by scattered analysis of equilibrium-state data obtained at different concentrations of analogues.
To examine the direct binding and calculation of equilibrium dissociation constant (KD) of MDL-A analogues with gp130 extracellular domain, surface plasmon resonance analysis was done. Protein was covalently cross linked to the dextran matrix of the biosensor chip CM5. Successively, various concentrations of MDL-A and MDL-A analogues were injected into the flow cells containing bound protein and no protein (reference). Interactions were monitored in real time and KD values were calculated by reference-substrated sensogram.
To examine the direct binding and calculate the equilibrium dissociation constant (KD) of MDL-A analogues with gp130 extracellular domain, surface plasmon resonance analysis was performed. Surface plasmon resonance (SPR) analysis was performed using a BIAcore T100. […]

[4] = system: Stat3 phosphorylation (p-Tyr705) induced by IL-6 in LNCaP prostate cancer cells; assay: IL-6 induced Stat3 phosphorylation in LNCaP cells, Western blot; type: cell-based; conditions: IL-6 12.5 ng/ml 30 min
[5] = system: LIF mediated STAT3 phosphorylation; assay: LIF induced phosphorylation of STAT3 (FIG. 34); type: cell-based
[6] = system: SUM-159 breast cancer cells tumor xenograft; assay: Tumor xenograft model with SUM-159 breast cancer cells; type: in vivo, human; conditions: 100 mg/kg, SUM-159 xenograft, vehicle DMSO
Description: The effect of a representative compound, MDL-16, on tumor progression is compared to a group treated with vehicle (DMSO).

[7] = system: IL6 mediated STAT3 phosphorylation; assay: IL6 induced phosphorylation of STAT3 (FIG. 34); type: cell-based
[8] = gp130-Fc-HA on CM5 chip, BIAcore T100, read-out: SPR data (Kd μM)
[9] = gp130 extracellular domain, Biacore evaluation software 2.0, read-out: KD

Row | SMILES | inhibition of Stat3 phosphorylation induced by IL6 ([1]; IL-6 12.5 ng/ml 30 min) | nuclear translocation of STAT3 activated by IL6 [2] | Kd [3, 8] [µM] | Kd [3, 9] [µM] | binding in SPR direct binding assay, comparison in words [3] | relative potency of inhibition of Stat3 phosphorylation [1] | inhibition of Stat3 phosphorylation induced by IL-6 at 40 µM [4] | inhibition of Stat3 phosphorylation induced by IL-6 at 40 µM ([1]; 40 μM compound 4 hours, IL-6 12.5 ng/ml 30 min) | LIF mediated STAT3 phosphorylation [5] | effect on tumor progression compared to vehicle [6] | IL6 mediated STAT3 phosphorylation [7] | Kd ([3]; values in running text and figure legend, read-out: dissociation constant (KD)) [µM]
1 | CCCCc1ccc(O)c(CN2c3ccccc3[C@]3(O)C[C@H](COC(=O)c4ccccc4)O[C@H]23)c1O (stereo in doubt) [MDL-5, ((2S,3AR)-8-(3-butyl-2,6-Dihydroxybenzyl)-3A-Hydroxy-3,3A,8,8A-Tetrahydro-2H-Furo[2,3-B]Indol-2-Yl)Methyl Benzoate] | dose dependent inhibition | inhibits the nuclear translocation of STAT3 | 37 | 37 | stronger binding than analogues without extra attachments; also recorded: better binding than MDL-A; also recorded: better activity than MDL-A |  |  |  |  |  |  | 
2 | CCCCn1nccc1C(=O)CN1c2ccccc2[C@]2(O)CCO[C@H]12 [MDL-3] |  |  |  |  | better binding than MDL-A |  |  |  |  |  |  | 
3 | CCCCc1ccc(O)c(Cn2cc(CCO)c3ccccc32)c1O [MDL-6] |  |  | 49.5 | 49.5 | better binding than MDL-A; also recorded: better activity than MDL-A | slightly more potent than MDL-5 | completely inhibit |  |  |  |  | 
4 | CCCCc1ccc(O)c(Cn2cc(CCO)c3cc(C(=O)OC)ccc32)c1O [MDL-7] |  |  | 40.8 | 40.8 | better binding than MDL-A; also recorded: better activity than MDL-A | slightly more potent than MDL-5 | completely inhibit |  |  |  |  | 
5 | CCCCc1ccc(OC)c(Cn2cc(CCO)c3ccccc32)c1OC [MDL-8] |  |  | 41.4 | 41.4 | better binding than MDL-A; also recorded: better activity than MDL-A |  |  |  |  |  |  | 
6 | CCCCc1ccc(O)c(Cn2cc(C[C@H](O)COC(=O)c3ccccc3)c3ccccc32)c1O [MDL-16, (S)-3-(1-(3-Butyl-2,6-Dihydroxybenzyl)-1H-Indol-3Yl)-2-Hydroxypropyl Benzoate] | dose dependent inhibition | inhibits the nuclear translocation of STAT3 | 29 |  | stronger binding than analogues without extra attachments; also recorded: strongest binding affinity; also recorded: better binding than MDL-A; also recorded: better activity than MDL-A | slightly more potent than MDL-5 |  | completely inhibits | not LIF mediated STAT3 phosphorylation | significant effect on tumor progress compared to vehicle | inhibits IL6 mediated STAT3 phosphorylation | 29.7
7 | CCCCc1ccc(OC)c(CN2c3ccccc3[C@]3(O)C[C@H](COC(=O)c4ccccc4)O[C@H]23)c1OC [MDL-17] |  |  | 42.5 |  | stronger binding than analogues without extra attachments; also recorded: better binding than MDL-A; also recorded: better activity than MDL-A |  |  |  |  |  |  | 
